Experimental data as given in patent US6573274B1, “Sulfonamide compounds and uses thereof as medicines” (Fujisawa Pharmaceutical Co. Ltd., priority 1998, dated 2003).

Row | melting point | Compound
1 | 136 to 138 °C | CCCCCOc1ccc(Cn2c(C)nc3ccc(C(=O)NS(=O)(=O)NCCCC)nc32)c(Cl)c1 [Example 26, 5-((1-butylaminosulfonyl)carbamoyl)-3-(2-chloro-4-(1-pentyloxy)benzyl)-2-methyl-3H-imidazo[4,5-b]pyridine]
2 | 160 to 161 °C | CCCCCS(=O)(=O)NC(=O)c1ccc2nc(C)n(Cc3ccc(OCC4CCCC4)cc3Cl)c2n1 [Example 27, 3-(2-chloro-4-((cyclopentylmethyl)oxy)benzyl)-2-methyl-5-(1-pentanesulfonylcarbamoyl)-3H-imidazo[4,5-b]pyridine]
3 | 180 to 181 °C | CCCCS(=O)(=O)NC(=O)c1ccc2nc(C)n(Cc3ccc(OCC4CCCC4)cc3Cl)c2n1 [Example 28, 5-(1-butanesulfonylcarbamoyl)-3-(2-chloro-4-((cyclopentylmethyl)oxy)benzyl)-2-methyl-3H-imidazo[4,5-b]pyridine]
4 | 161 to 162 °C | CCCCCS(=O)(=O)NC(=O)c1cc(C)c2nc(C)n(Cc3ccc(OCCC)cc3Cl)c2n1 [Example 35, 3-(2-chloro-4-(1-propoxy)benzyl)-2,7-dimethyl-5-(1-pentanesulfonylcarbamoyl)-3H-imidazo[4,5-b]pyridine]
5 | 164 to 166 °C | CCCCS(=O)(=O)NC(=O)c1cc(C)c2nc(C)n(Cc3ccc(OCCC)cc3Cl)c2n1 [Example 36, 5-(1-butanesulfonylcarbamoyl)-3-[2-chloro-4-(1-propoxy)benzyl]-2,7-dimethyl-3H-imidazo[4,5-b]pyridine]
6 | 149 to 150 °C | CCCCCOc1ccc(Cn2c(C)nc3c(C)cc(C(=O)NS(=O)(=O)CCCCC)nc32)c(Cl)c1 [Example 38, 3-[2-chloro-4-(1-pentyloxy)benzyl]-2,7-dimethyl-5-(1-pentanesulfonylcarbamoyl)-3H-imidazo[4,5-b]pyridine]
7 | 185 to 186 °C | CCCCCS(=O)(=O)NC(=O)c1ccc2nc(C)n(Cc3ccc(NC)cc3Cl)c2n1 [Example 42, 3-(2-chloro-4-(methylamino)benzyl)-2-methyl-5-(1-pentanesulfonylcarbamoyl)-3H-imidazo[4,5-b]pyridine]
8 | 148 to 149 °C | CCCCCS(=O)(=O)NC(=O)c1ccc2nc(C)n(Cc3ccc(N(C)CC)cc3Cl)c2n1 [Example 43, 3-(2-chloro-4-(ethylmethylamino)benzyl)-2-methyl-5-(1-pentanesulfonylcarbamoyl)-3H-imidazo[4,5-b]pyridine]
9 | 129 to 130 °C | CCCCCS(=O)(=O)NC(=O)c1ccc2nc(C)n(Cc3ccc(N(C)CCC)cc3Cl)c2n1 [Example 44, 3-(2-chloro-4-(methyl-(1-propyl)amino)benzyl)-2-methyl-5-(1-pentanesulfonylcarbamoyl)-3H-imidazo[4,5-b]pyridine]
10 | 129 to 130 °C | CCCCCS(=O)(=O)NC(=O)c1ccc2nc(C)n(Cc3ccc(N(C)CCCC)cc3Cl)c2n1 [Example 45, 3-(4-((1-butyl)methylamino)-2-chlorobenzyl)-2-methyl-5-(1-pentanesulfonylcarbamoyl)-3H-imidazo[4,5-b]pyridine]
11 | 83 to 85 °C | CCCCCN(C)c1ccc(Cn2c(C)nc3ccc(C(=O)NS(=O)(=O)CCCCC)nc32)c(Cl)c1 [Example 52, 3-(2-chloro-4-(methyl-(1-pentyl)amino)benzyl)-2-methyl-5-(1-pentanesulfonylcarbamoyl)-3H-imidazo[4,5-b]pyridine]
12 | 169 to 170 °C | CCCCCS(=O)(=O)NC(=O)c1ccc2nc(C)n(Cc3ccc(N(C)CC4CCCCC4)cc3Cl)c2n1 [Example 53, 3-(2-chloro-4-(N-(cyclohexylmethyl)methylamino)benzyl)-2-methyl-5-(1-pentanesulfonylcarbamoyl)-3H-imidazo[4,5-b]pyridine]
13 | 169 to 170 °C | CCCCCS(=O)(=O)NC(=O)c1ccc2nc(C)n(Cc3ncc(C(F)(F)F)cc3Cl)c2n1 [Example 57, 3-[(3-chloro-5-(trifluoromethyl)-2-pyridyl)methyl]-2-methyl-5-(1-pentanesulfonylcarbamoyl)-3H-imidazo[4,5-b]pyridine]
14 | 208 to 209 °C | CCCNS(=O)(=O)NC(=O)c1ccc2nc(C)n(Cc3ccc(-c4ccccc4)cc3Cl)c2n1 [Example 60, 3-(2-chloro-4-phenylbenzyl)-2-methyl-5-[(1-propylaminosulfonyl)carbamoyl]-3H-imidazo[4,5-b]pyridine]

The remaining lines, values behind:

Row | Compound | melting point
15 | CCCCS(=O)(=O)NC(=O)c1ccc2nc(C)n(Cc3ccc(OC(C)C)cc3Cl)c2n1 [Example 15, 5-(1-butanesulfonylcarbamoyl)-3-(2-chloro-4-isopropoxybenzyl)-2-methyl-3H-imidazo-[4,5-b]pyridine] | 138 to 141 °C
16 | CCCCCS(=O)(=O)NC(=O)c1ccc2nc(C)n(Cc3ccc(OCCCC)cc3Cl)c2n1 [Example 17, 3-(2-chloro-4-(1-butoxy)benzyl)-2-methyl-5-(1-pentanesulfonylcarbamoyl)-3H-imidazo[4,5-b]pyridine] | 133 to 136 °C
17 | CCCCOc1ccc(Cn2c(C)nc3ccc(C(=O)NS(=O)(=O)CCCC)nc32)c(Cl)c1 [Example 18, 5-(1-butanesulfonylcarbamoyl)-3-(2-chloro-4-(1-butoxy)benzyl)-2-methyl-3H-imidazo[4,5-b]pyridine] | 144 to 145 °C
18 | CCCCCOc1ccc(Cn2c(C)nc3ccc(C(=O)NS(=O)(=O)CCCCC)nc32)c(Cl)c1 [Example 20, 3-(2-chloro-4-(1-pentyloxy)benzyl)-2-methyl-5-(1-pentanesulfonylcarbamoyl)-3H-imidazo[4,5-b]pyridine] | 128 to 131 °C
19 | CCCCCOc1ccc(Cn2c(C)nc3ccc(C(=O)NS(=O)(=O)CCCC)nc32)c(Cl)c1 [Example 21, 5-(1-butanesulfonylcarbamoyl)-3-(2-chloro-4-(1-pentyloxy)benzyl)-2-methyl-3H-imidazo[4,5-b]pyridine] | 145 to 146 °C
20 | CCCCCOc1ccc(Cn2c(C)nc3ccc(C(=O)NS(=O)(=O)c4ccc(Br)s4)nc32)c(Cl)c1 [Example 23, 5-[(5-bromothiophen-2-yl)sulfonylcarbamoyl]-3-[2-chloro-4-(1-pentyloxy)benzyl]-2-methyl-3H-imidazo[4,5-b]pyridine] | 156 to 157 °C
21 | CCCCCOc1ccc(Cn2c(C)nc3ccc(C(=O)NS(=O)(=O)c4ccc(Cl)s4)nc32)c(Cl)c1 [Example 24, 3-[2-chloro-4-(1-pentyloxy)benzyl]-2-methyl-5-[(5-chlorothiophen-2-yl)sulfonylcarbamoyl]-3H-imidazo[4,5-b]pyridine] | 154 to 155 °C
22 | CCCCCOc1ccc(Cn2c(C)nc3ccc(C(=O)NS(=O)(=O)NCCC)nc32)c(Cl)c1 [Example 25, 5-((1-propylaminosulfonyl)carbamoyl)-3-(2-chloro-4-(1-pentyloxy)benzyl)-2-methyl-3H-imidazo[4,5-b]pyridine] | 155 to 158 °C
23 | CCCCCS(=O)(=O)NC(=O)c1ccc2nc(C)n(Cc3ccc(N(C)C(=O)OC(C)(C)C)cc3Cl)c2n1 [Example 41, 3-(4-(N-(tert-butoxycarbonyl)-N-methylamino)-2-chlorobenzyl)-2-methyl-5-(1-pentanesulfonylcarbamoyl)-3H-imidazo[4,5-b]pyridine] | 160 to 161 °C
